Reference: article PMC10385664, “Projection of Target Drug Particle Size in Oral Formulations Using the Refined Developability Classification System (rDCS)” (Pharmaceutics, 2023)

Tested on: Caco-2 cells
Assay: Caco-2 permeability assay (pH 6.5/7.4 gradient, ± elacridar)
Conditions: Caco-2, 10 µM, apical pH 6.5 / basolateral pH 7.4, 120 min, without inhibitor
Method: In vitro permeability studies were performed at Cyprotex Discovery Ltd. (Macclesfield, UK) using a high-throughput Caco-2 permeability assay. Permeability at 37 °C was assessed from the apical to basolateral side (A⟹B) and in opposite direction (B⟹A) applying a pH gradient with pH 6.5 in the apical and pH 7.4 in the basolateral compartment (Hanks Balanced Salt Solution, HBSS). After an incubation of 120 min, samples were diluted for analysis via liquid chromatography coupled with tandem mass spectrometry (LC-MS/MS). […] Experiments were performed in absence and presence of the P-glycoprotein (P-gp) inhibitor elacridar (10 µM) to study transporter-mediated efflux effects. The dosing solutions contained the API (10 µM) in HBSS, and DMSO in a concentration of ≤1% v/v. Lucifer yellow (100 µM) was included as fluorescent integrity marker. Further experimental details are provided in Supplementary Materials.
The apparent permeability coefficients (Papp) were calculated according to Equation (27):(27) Papp=dQ/dt/C0·A where dQ/dt is the permeation rate of the API across the cell monolayer, C0 is the starting concentration of the API in the dosing solution and A is the surface area of the cell monolayer. The efflux ratios (ERs) were calculated from the B⟹A and A⟹B Papp values to estimate whether P-gp mediated efflux was involved in the transport of the APIs. The mass balance (% recovery) was calculated from the sum of the API recovered from the acceptor and donor compartments at the end of the experiment, divided by the initial donor amount.
Table S6. Gradient of the UPLC method for analysis of lemborexant.
Table S7. Gradient of the UPLC method for analysis of istradefylline.
S.2.5. rDCS Standard Investigations: Caco‐2 permeability studies
Caco‐2 cells were obtained from the American Type Culture Collection (ATCC, Manassas, VA, USA) and used between passage numbers 40 to 60. The cells were seeded onto Millipore Multiscreen Transwell plates at a density of 1 x 10^5 cells/cm2 and cultured in Dulbeccoʹs Modified Eagleʹs Medium (DMEM). The medium was changed every two or three days. Ce l l culture was carried out at 37 °C in an atmosphere of 5 % CO2 with a relative humidity of 95 %. The permeability assay was performed on day 20.
In vitro permeability was assessed wit h a high‐throughput Caco‐2 permeability assay. The assay was prepared by rinsing apical and basolateral monolayer surfaces twice with Hanks Balanced Salt Solution (HBSS) at the desired pH and 37 °C. Subsequently, cells in the apical and basolateral compartments were incubated with HBSS at the desired pH for 40 min. A pH gradient with pH 6.5 in the apical compartment and pH 7.4 in the basolateral compartment was applied. Dosing solutions containing the API (10 μ M) were prepared by diluting a concentrated API solution in DMS O with HBSS. The final DMSO concentration was ≤ 1% v/v. Lucifer yellow (100 μM) was included in the dosing solution as fluorescent integrity marker. For the assessment of the permeability from the apical to basolateral side (A⟹B), HBSS in the apical compartment was replaced with the dosing solution. The apical inserts were placed into a companion plat e containing fresh buffer with 1% v/ v DMSO. For the assessment of the permeability from the basolateral to […]
apical side (B⟹A), HBSS was removed from the companion plate and replaced with the solution of drug in HBSS. Fresh HBSS was added to the apical insert, which was then placed into the companion plate.
Experiments were performed in absence and presence of the P‐glycoprotein (P‐gp) inhibitor elacridar (10 μM) to study transporter‐mediated efflux effects. In those experiments, elacridar was included in both compartments during the equilibration time and assay. The starting concentration (C0) was confirmed by sampling from the dosing solution immediately before dosing into the cell pl ates. After incubation of 120 minutes, the apical inserts and companion plates were separated for sampling from both compartments.

SMILES: CC(C)NCC(O)COc1cccc2ccccc12 (stereo not shown) [propranolol]
- Papp(A⟹B): 13.0 ± 0.7 ×10^−6 cm/s
